The results in this text go back to US20120108464A1, “TEST SYSTEMS, METHODS AND USES INVOLVING AS160 PROTEIN” (SANOFI-AVENTIS, priority 2009, published 2012).

The test system of assay [1] is L6-GLUT4myc cells transiently transfected with pCDNA5/TO/GFP. In words: Functionality of the T-REx system: tetracycline-inducible GFP expression plasmid. In kind it is cell-based, rat. The note with it: doxycycline 1 μg/ml versus absence of doxycycline. Here is the method: FIG. 4: Functionality of the T-Rex system. […]T4myc cells were transiently transfected with […] pCDNA5/TO/GFP. In the absence of doxycycline only a minor number of cells express GFP (A). Addition of doxycycline (1μg/ml) increases the number of GFP positive cells up to about 10 fold (B). L6 cells stably expressing GLUT4myc ([…]T4myc, described in Wang et al. 1998) were subsequently used for the tet-inducible expression of AS160 protein. For this purpose the T-REx system from Invitrogen was used. The regulatory plasmid in this system controls the constitutive expression of the tet-repressor (tet-R) under the control of a CMV (cytomegalovirus) promoter. In the absence of tetracyline (or doxycycline) the repressor binds to specific tetracycline-operator sequences (TetO2) and thereby represses expression. Addition of tetracycline (or doxycycline) induces expression of the protein of interest. To allow a stable integration of the tet-system in […]T4myc cells the tet-repressor was islolated from pCDNA3.1 (+)/TR (Invitrogen) and cloned into the Nhel and Notl sites of pIRESpuro2 (FIG. 3). Subsequently pIRESpuro2/TR was transfected into […]T4myc cells. Clones stably expressing the regulatory plasmid were selected with 0.5 μg/ml puromycin (InvivoGen). Functionality of the tet-repressor was controlled with a tetracycline-inducible GFP expression plasmid (pCDNA5/TO-GFP). […]

The test system of assay [2] is L6-GLUT4myc cells containing AS160. Briefly: Uptake of 2-deoxyglucose in response to insulin (Cytostar-T scintillating microplates). In kind it is cell-based, rat. The note with it: FIG. 6. Here is the method: For all examples the L6-GLUT4myc cells containing AS160 were grown in MEMα (PAN) supplemented with 10% fetal calf serum (FCS) (PAA, tet-free), 2 μg/ml blasticidin (Calbiochem), 0.5 μg/ml puromycin (InvivoGen), 200 μg/ml hygromycin (Invitrogen). Expression of AS160 was induced with 1 μg/ml doxycyclin (Sigma). L6-wildtype (wt) (ATCC: CRL-1458) cells were grown in MEMα+GlutaMax (Gibco) supplemented with 10% FCS (PAA, tet-free) and 1% penicillin/streptomycin (PAA). L6-GLUT4myc cells were grown in MEMα+GlutaMax (Gibco) supplemented with 10% FCS (PAA, tet-free), 1% penicillin/streptomycin (PAA) and 2 μg/ml blasticidin (Calbiochem). Expression of AS160 was induced by inbubation of the cells for 48 hours with 1 μg/ml doxycycline (Sigma). All cells were grown at 37° C. and 5% CO2 L6-GLUT4myc cells containing AS160 were incubated in starve medium (MEMα) 3-4 hours prior to each experiment.
To examine glucose uptake of the cells, the respective cells were plated in 96 well Cytostar-T scintillating microplates (Amersham/GE). After 48 hours cells were serum-starved (3-4 hours) and treated with the indicated Insuman (human insulin) concentartions a for 20 minutes. […] Nonspecific uptake was determined in the presence of 40 μM cytochalasin B (Calbiochem). […] Uptake of 2-deoxyglucose is measured as counts per […] and presented as fold over basal. […]

Regarding `C[C@H]1c2cccc(O)c2C(=O)C2=C(O)[C@]3(O)C(=O)C(C(N)=O)=C(O)[C@@H](N(C)C)[C@@H]3[C@@H](O)[C@@H]21` [doxycycline], the “Increase of the number of GFP positive cells” value in assay [1] was “about 10 fold”.

On to insulin: Insuman (human insulin), for which, in assay [2] (with expression of AS160 (isoform 1, doxycycline-induced), 100 nM insulin, 20 minutes), the “Uptake of 2-deoxyglucose, fold over basal” value was “about 6 fold”. In assay [2] (without expression of AS160 (isoform 1), insulin 20 minutes), the “Uptake of 2-deoxyglucose, fold over basal (maximum)” value is on record as “about 4 fold”.
